From publication PMC3479139, “Diverse Small Molecule Inhibitors of Human Apurinic/Apyrimidinic Endonuclease APE1 Identified from a Screen of a Large Public Collection” (PLoS ONE, 2012)

What was measured:
APE1 [1] = molecular target: T1, APE1 (Homo sapiens, UniProt P27695); experiment: Fluorogenic kinetic qHTS APE1 incision assay (primary screen and retest of cherrypicked samples); assay type: biochemical;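 note: purified APE1 cleaving a fluorophore/dark-quencher labelled 17-mer duplex DNA bearing a tetrahydrofuran AP site, fluorescence rise followed kinetically over the first 2 min, inhibition normalized to controls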
T1 construct: made in house
T1 sequence (P27695 whole entry): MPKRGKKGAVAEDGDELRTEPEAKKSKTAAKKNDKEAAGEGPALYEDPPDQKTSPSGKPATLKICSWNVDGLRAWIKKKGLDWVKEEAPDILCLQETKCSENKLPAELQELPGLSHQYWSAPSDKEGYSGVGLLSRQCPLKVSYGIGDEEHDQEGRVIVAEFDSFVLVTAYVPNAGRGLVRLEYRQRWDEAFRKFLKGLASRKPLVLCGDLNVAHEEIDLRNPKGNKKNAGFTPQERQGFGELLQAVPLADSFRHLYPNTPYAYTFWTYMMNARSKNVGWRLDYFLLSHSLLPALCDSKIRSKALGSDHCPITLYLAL

APE1 [2] = molecular target: T1, APE1; experiment: Gel-based radiotracer (32P) APE1 incision assay; assay type: biochemical; parameters: concentration or dose not given beside the values; conditions: percent incision shown; entries 1-112;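 note: APE1 incision reactions ran 5 min at 37 °C, with cleaved product and intact substrate resolved electrophoretically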
APE1 [3] = molecular target: T1, APE1; experiment: Fluorescence polarization (FP) displacement assay of APE1 binding to AP-DNA probe; conditions: read-out: FP IC50;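 note: TAMRA 5′-labeled duplex DNA with THF abasic site (5 nM) and APE1 (20 nM), Mg2+-free buffer, 15 min at room temperature, inhibition seen as lowered polarization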
[4] = molecular target: double-stranded 17-mer DNA fragment; experiment: ThO (Thiazole Orange) DNA displacement assay; assay type: binding; conditions: read-out: ThO-DNA binding IC50;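 note: miniaturized displacement of the intercalating dye from unlabeled duplex DNA, used to flag nonspecific DNA binders, chiefly intercalators, groove binders may be missed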
Excerpt: The double-stranded 17-mer DNA fragment used in the ThO DNA binding assay was of the same sequence as the fluorogenic HTS substrate but carried no dye labels.
(§1) In order to screen out nonselective compounds, such as non-specific DNA binders and inhibitors of related enzymes, we used a miniaturized ThO DNA displacement assay and a counterscreen against the bacterial endonuclease E. coli Endo IV, respectively, following the previously published protocols [21].
To detect screening hits that inhibit APE1 activity through non-specific DNA interactions, we employed a previously established miniaturized ThO dye displacement assay [21]. […] We note that the ThO assay reports primarily on DNA binders acting through intercalation, while potentially missing other types of DNA binders, such as those acting through the minor groove.

E. coli Endo IV = molecular target: T2, E. coli Endo IV (Escherichia coli, UniProt P0A6C1); experiment: E. coli Endo IV profiling counterscreen; assay type: biochemical; conditions: read-out: EndoIV IC50;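 note: selectivity counterscreen of candidate APE1 inhibitors against the bacterial endonuclease Endo IV, run in the same assay format as the primary APE1 high-throughput screen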
T2 construct: made in house
Excerpt: as §1
To probe the selectivity of the candidate APE1 inhibitors, we tested them against E. coli EndoIV [36], employing the same assay as used in the HTS.

HeLa cells = experiment: MMS potentiation assay (CellTiter Glo viability); assay type: cell-based, human; parameters: key: N.A., no activity observed; P, positive; I, inconclusive; N.T., not tested; conditions: potentiation of the genotoxic effect of methylmethane sulfonate
Protocol: HeLa cells were plated at 6000 cells/well in DMEM culture medium containing 10% FBS into white solid bottom 384-well cell culture plates. The plates were incubated at 37°C overnight for cell attachment, followed by media replacement. The fresh medium contained serial dilutions of compounds of interest in the presence (0.4 mM final) or absence of MMS. The plates were incubated for 24 h at 37°C. Cell viability was determined by luminescence detection after an addition of 15 µL of CellTiter Glo reagent (Promega, Madison, WI). Percent viability was calculated for each concentration of compound tested in duplicate by relating the corresponding luminescence to that of a negative DMSO vehicle control. MMS potentiation trends were defined as follows: negative (-), if cell viability in the compound-plus-MMS treatment was the same as that of the DMSO-plus-MMS control (overlapping dose-response curves); inconclusive (I), if the shift in the cell viability dose-response upon MMS inclusion relative to compound-alone was less than 30%; and positive (P), if the difference between the compound-plus-MMS and compound-alone curves was at least 30%, and maintained within at least a two-fold compound concentration span.
To examine the biological prospects of the top compounds, we tested their ability to inhibit APE1 DNA repair activity by assessing enhancement of MMS toxicity in mammalian cells. MMS creates methylated-base damage to genomic DNA, which, when excised by an alkylpurine DNA glycosylase, results in a high number of cytotoxic AP sites. We compared the viability of HeLa cells exposed to a dilution series of inhibitor alone to a combination of a fixed MMS concentration with the same dilution series of inhibitor by using a standard CellTiter Glo luminescence assay. This technique measures the number of viable cells in culture based on quantitation of the ATP present, which signals the presence of metabolically active cells. The assay was further optimized for 384-well plates, allowing a high-throughput testing of multiple hits at multiple concentrations, a scope of investigation previously impossible due to the very low throughput of the traditionally applied colony formation assay.
From the 223 compounds found positive in the gel-based APE1 assays, exclusion of the most promiscuous hits, that is, those that were both DNA binders and EndoIV-inhibitory, yielded a set of 170 compounds (Figure 3). This shortened group of hits was tested in the cell-based potentiation assay for their ability to dose-dependently enhance sensitivity of HeLa cells to the alkylating agent MMS.

APE1 [5] = molecular target: T1, APE1; experiment: Gel-based APE1 incision assay with fluorescence (TAMRA) detection; assay type: biochemical
[6] = initial quantitative high-throughput screen, read-out: APE1 qHTS IC50
[7] = retest of cherrypicked sample, read-out: APE1 Retest IC50
[8] = entries 113-223: fluorophore detection, estimated IC50, read-out: Gel-based electrophoretic separation assay with fluorophore detection, estimated IC50 (column headed Radiotracer Assay (%Activity))
[9] = estimated IC50, fluorophore detection, entries 113-223, read-out: F-PAGE Assay IC50

SMILES	IC50 (APE1 [1]; [6]) [µM]	IC50 (APE1 [1]; [7]) [µM]	Radiotracer Assay (%Activity) (APE1 [2]) [%]	IC50 (APE1 [3]) [µM]	IC50 [4] [µM]	IC50 (E. coli Endo IV) [µM]	MMS Assay (HeLa cells)	IC50 (APE1 [5]; [8]) [µM]	IC50 (APE1 [5]; [9]) [µM]
CC(C(=O)O)N1C(=O)/C(=C/C=C/c2ccco2)SC1=S (stereo not shown) [MLS000551724]	2.8	0.9	9	12.6	> 57	> 57	I	–	–
CC(C)C(=O)NC(C)C(c1cccs1)N1CCN(c2ccccc2)CC1 (stereo not shown) [MLS000092582]	–	–	–	–	> 57	> 57	I	–	–
CC(=O)Nc1sc2c(c1-c1nc3ccccc3s1)CCN(C(C)C)C2 [MLS000419194]	14.1	3.9	2	2.5	> 57	–	P	–	–
CCOC(=O)C1=C(C)N=c2s/c(=C\c3ccc(OCC(=O)O)cc3)c(=O)n2C1c1ccc(Cl)cc1 (stereo not shown) [MLS001178472]	10.6	14.5	–	> 57	> 57	> 57	–	11.2	–
COCCN(CC(=O)Nc1cccc(C)c1C)C(=O)c1cc2c(s1)CCC2 [MLS002170765]	15	18.2	–	> 57	> 57	> 57	–	17.8	–
NS(=O)(=O)c1ccc(N=Nc2ccc(=O)[nH]c2O)cc1 [MLS000738241]	7.5	12.9	–	> 57	> 57	> 57	–	–	3.5
COc1cc(-c2nnc(COC(=O)c3ccc(C)o3)o2)cc(OC)c1OC [MLS001139127]	23.8	32.4	–	> 57	> 57	> 57	–	14.1	–
COc1ccc(NC(=O)CN(C)C(=O)c2cccc(-n3cccc3)c2)cc1 [MLS001097639]	2.4	18.2	–	> 57	> 57	> 57	–	–	3.5
CCCCN(C(=O)c1cccc(-n2cccc2)c1)c1c(N)n(Cc2ccccc2)c(=O)[nH]c1=O [MLS001159279]	2.7	12.9	–	> 57	> 57	> 57	–	–	2.8
O=C(O)c1ccc(-c2ccc(/C=c3/sc4nc5ccccc5n4c3=O)o2)cc1Cl [MLS001196440]	9.5	7.3	–	> 57	40.8	> 57	–	–	7.1
CC1=C(C(=O)OC(C)C)C(c2ccc(Cl)cc2)n2c(s/c(=C\c3ccc(OCC(=O)O)cc3)c2=O)=N1 (stereo not shown) [MLS001178474]	6.7	5.1	–	> 57	10.2	> 57	–	–	1.4
c1ccc2c(NCCc3c[nH]c4ccccc34)c3ccccc3nc2c1 [MLS001195935]	18.9	18.2	–	> 57	32.4	> 57	–	25.1	–
CCOC(=O)C1CCCN(C(=O)c2cc(-c3ccco3)nc3ccccc23)C1 (stereo not shown) [MLS002245402]	8.4	18.2	–	> 57	32.4	> 57	–	–	4
COc1cccc(NC(=O)CN(C)C(=O)c2cc(-c3ccco3)nc3ccccc23)c1 [MLS001156783]	10.6	10.2	–	> 57	> 57	> 57	–	–	7.9
Cn1cnnc1SCC(=O)Nc1ncc([N+](=O)[O-])s1 [MLS002252055]	8.4	6.5	–	> 57	40.8	> 57	–	–	5
O=C(COC(=O)/C=C/c1ccco1)Nc1ncc(Cl)cc1Cl [MLS000391557]	–	–	–	–	> 57	> 57	I	–	–
